According to article PMC8911181, “A Novel CDK4/6 and PARP Dual Inhibitor ZC-22 Effectively Suppresses Tumor Growth and Improves the Response to Cisplatin Treatment in Breast and Ovarian Cancer” (International Journal of Molecular Sciences, 2022):

Key:
OVCAR5 xenograft tumors = test: Ovarian cancer xenograft mouse model, tumor growth; assay type: in vivo, mice; conditions: 1.5 mg/kg cisplatin and 50 mg/kg ZC-22 ip
Procedure: Six-week-old female athymic nude mice (Homozygous) were purchase from Vital River Laboratories (Beijing, China) and maintained under the guidelines for laboratory animals of Nankai university (NKU). Mice were injected subcutaneously with 2 × 10^6 MDA-MB-231 or 8 × 10^6 OVCAR5 cells. When tumors were 50–100 mm^3 in size, the mice were randomly grouped and treated intraperitoneal (i.p.) with 50 mg/kg of Olaparib, 50 mg/kg of LY2835219, 50 mg/kg of ZC-22, or 1.5 mg/kg of cisplatin alone or in combinations or with the vehicle (PBS containing 10% DMSO and 10% 2-hydroxy-propyl-β-cyclodextrin) every 2 days. Tumor volume was measured every 3–4 days, which was calculated as Length × Width^2/2. At the end of the study, tumor and major organ tissues were harvested by surgery. For histopathological analysis, tissue samples were washed with PBS, fixed in 4% paraformaldehyde (PFA), paraffin-embedded, and sectioned into 7 μm thickness. […]
Figure 7 ZC-22 increases the efficacy of cisplatin treatment in ovarian cancer cells in vivo. […] Tumor volumes were measured every 2–3 days. […] (B,C) Pictures (B) and quantification of the size (C) of the OVCAR5 xenograft tumors at the end points. […] (D,E) Representative pictures (D) and quantification of percentage (E) of Ki67 and γH2A.X-positive cells in immunohistochemical staining of the OVCAR5 xenograft tumor tissues. […]

[1] = test system: MDA-MB-231 xenograft tumors; test: Breast cancer xenograft mouse model, tumor growth; assay type: in vivo, mice
Procedure: Six-week-old female athymic nude mice (Homozygous) were purchase from Vital River Laboratories (Beijing, China) and maintained under the guidelines for laboratory animals of Nankai university (NKU). Mice were injected subcutaneously with 2 × 10^6 MDA-MB-231 or 8 × 10^6 OVCAR5 cells. When tumors were 50–100 mm^3 in size, the mice were randomly grouped and treated intraperitoneal (i.p.) with 50 mg/kg of Olaparib, 50 mg/kg of LY2835219, 50 mg/kg of ZC-22, or 1.5 mg/kg of cisplatin alone or in combinations or with the vehicle (PBS containing 10% DMSO and 10% 2-hydroxy-propyl-β-cyclodextrin) every 2 days. Tumor volume was measured every 3–4 days, which was calculated as Length × Width^2/2. At the end of the study, tumor and major organ tissues were harvested by surgery. For histopathological analysis, tissue samples were washed with PBS, fixed in 4% paraformaldehyde (PFA), paraffin-embedded, and sectioned into 7 μm thickness. For Western blot analysis, the tissue samples were dissociated by a tissue-tearor in RIPA buffer containing 1×protease and phosphatase inhibitors.
Figure 4 ZC-22 suppresses growth of breast cancer xenografts. Female NOD-SCID mice were injected subcutaneously with 2 × 10^6 of MDA-MB-231 cells and treated ip daily with 50 mg/kg of Olaparib (OLA) or LY2835219 (LY-2) alone or together (OLA + LY-2) or with ZC-22 alone starting on day 10 after injection of cells when tumors were 50–80 mm^3 in size. Tumor volumes were measured every 2–3 days. […] (B,C) Pictures of (B) and quantification of the size of (C) the MDA-MB-231 xenograft tumors at the end points. […] (E) Quantification of Ki67 (Left) and γH2A.X (Right)-positive cells in immunohistochemical staining of the xenograft tumor tissues. […]
Figure 6 ZC-22 sensitizes breast cancer cells to cisplatin treatment in vivo. […] Tumor volumes were measured every 2–3 days. […] (B,C) Pictures (B) and quantification of the size (C) of the MDA-MB-231 xenograft tumors at the end points. […] (E) Quantification of Ki67 (left) and γH2A.X (right)-positive cells in immunohistochemical staining of the xenograft tumor tissues. […]

Cc1nc2c(F)cc(-c3nc(Nc4ccc(N5CCN(C(=O)c6cc(Cc7n[nH]c(=O)c8ccccc78)ccc6F)CC5)cn4)ncc3F)cc2n1C(C)C [ZC-22, 4-(4-fluoro-3-(4-(6-((5-fluoro-4-(4-fluoro-1-isopropyl-2-methyl-1H-benzo[d]imidazole-6-yl)pyrimidin-2-yl)amino)pyridin-3-yl)piperazine-1-carbonyl)benzyl)phthalazin-1(2H)-one]
sensitization to cisplatin treatment (tumor growth) (OVCAR5 xenograft tumors): significantly sensitized ovarian cancer cells to cisplatin treatment | growth of the xenograft tumors ([1]; 1.5 mg/kg cisplatin or 50 mg/kg ZC-22 ip alone or together): effectively inhibit growth of the xenograft tumors | anti-tumor efficacy (tumor growth) ([1]; 50 mg/kg ip, Olaparib and LY2835219 alone or together, or ZC-22): even higher therapeutic efficacy than combined Olaparib and Abemaciclib therapy
